Measurements taken from article PMC5472302, “Dicumarol inhibits PDK1 and targets multiple malignant behaviors of ovarian cancer cells” (PLoS ONE, 2017).

Target: Pyruvate dehydrogenase kinase 1 (PDK1) (Homo sapiens, UniProt Q15118)
Assay: ELISA-based in-well kinase assay: active PDK1 (Abcam) phosphorylating captured PDHA1 at Ser232
Format: biochemical

Chain of Pyruvate dehydrogenase kinase 1 (PDK1) (Q15118 29-436): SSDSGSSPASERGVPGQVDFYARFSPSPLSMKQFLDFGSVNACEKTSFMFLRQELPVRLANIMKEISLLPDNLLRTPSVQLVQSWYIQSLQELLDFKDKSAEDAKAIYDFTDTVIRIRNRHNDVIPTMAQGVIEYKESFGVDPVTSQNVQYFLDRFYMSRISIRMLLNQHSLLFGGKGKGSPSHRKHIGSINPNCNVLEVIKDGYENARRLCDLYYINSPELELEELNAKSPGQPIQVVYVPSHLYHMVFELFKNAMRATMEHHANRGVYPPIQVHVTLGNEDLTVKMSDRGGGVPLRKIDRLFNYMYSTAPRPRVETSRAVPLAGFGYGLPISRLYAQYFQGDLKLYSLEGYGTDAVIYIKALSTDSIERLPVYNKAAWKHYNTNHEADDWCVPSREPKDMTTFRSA

`O=c1oc2ccccc2c(O)c1Cc1c(O)c2ccccc2oc1=O` [DIC, dicumarol] gave an IC50 of 19.42 ± 0.032 µM.
